Entries after “also recorded” stand apart in the source; their conditions may differ. Structures can show the parent of a compound that is named as a salt.

One compound from patent US20080187508A1, “Treatment of Golmerular Basement Membrane Disease Involving Matrix Metalloproteinase-12” (BOYS TOWN NATIONAL RESEARCH HOSPITAL, priority 2004, published 2008) can be followed below.

Assay [1] concerns Alport mice. The assay can be described thus: immunofluorescence of kidney cryosections (fibronectin, collagen IV α1/α2) of treated Alport mice. The format is in vivo, mouse. To be noted: Alport mice treated from 4 to 7 weeks of age, MMI-270 50 μg/g I.P., BAY 129566 4 mg once daily oral gavage, fibronectin and collagen IV α1/α2 immunostaining. As for the experimental part:
The Alport mouse model has been described (Cosgrove et al. (1996) Genes Dev. 10, 2981-2992). The control mice used were normal for both collagen α3(IV) alleles, and are a product of double heterozygote crosses for the Alport mutation. The use of animals in this study was performed in accordance with an approved institutional IACUC protocol. Extreme care was taken to minimize pain and discomfort suffered by the mice. MMP inhibitors were administered between 4 and 7 weeks of age. All drugs were freshly prepared prior to administration. BAY 129566 was emulsified in suspension with 0.5% carboxymethyl cellulose and 4 mg given once a day by oral gavage. MMI-270 was solubilized in 0.9% saline and administered by I.P. injection (50 μg/g body weight) once a day.
Cryosections ([…]) of kidneys from 7-week-old normal and Alport mice were air dried, fixed by immersion in ice cold acetone, and subjected to immunohistochemical staining analysis using antibodies specific for MMP-3 (rabbit polyclonal anti-human MMP-3, a gift from Dr. Z. Gunza-Smith, Miami, Fla., used at 1:200 dilution), MMP-12 (rabbit polyclonal antibody against mouse MMP-12, kindly provided by Yoshikatsu Kaneko, used at 1:100 dilution), type IV collagen α1/2 chains (rabbit polyclonal against mouse type IV collagen, Biodesign, Inc., Saco, Me., used at 1:200 dilution), fibronectin (rabbit polyclonal against human plasma fibronectin, Sigma Chemical Co., St. Louis, Mo., used at 1:200). Anti-CD31 antibodies were directly conjugated to Alexa 568 (Molecular Probes, Eugene Oreg.) and purchased from Immunotech (Marseille, France). […] Images were collected using a Cytovision Ultra Image analysis system interfaced with an Olympus BH-2 fluorescence microscope.
To assess the effect of these two compounds on Alport renal disease progression, Alport mice were administered either MMI 270 or BAY 129566 from 4 to 7 weeks of age. […] Cryosections were analyzed by immunofluorescence microscopy to assess for the degree of glomerular and tubulointerstitial damage using antibodies specific for collagen IV α1 and α2 chains, and fibronectin.

The test system of assay [2] is Alport mice. The assay can be described thus: proteinuria by gel electrophoresis of urine of treated Alport mice. The format is in vivo, mouse. To be noted: for proteinuria: Alport mice treated from 4 to 7 weeks of age, MMI-270 50 μg/g I.P.; for progression of proteinuria: Alport mice treated from 6 to 7 weeks of age (advanced disease). The procedure: Proteinuria was analyzed by gel electrophoresis. (A) One half microliter of urine from control mice (lane 2), MMI 270-treated normal control mice (lane 3), MMI 270-treated Alport mice (injected […] with 50 μg/g of NMI 270) (lane 4), and untreated Alport mice (lane 5) was fractionated on a 10% PAGE gel, stained with Coomassie blue, and destained. Molecular weight markers are shown in lane 1. […] Urine was collected and analyzed as in (A). Lane 1, 6 week old control; lane 2, 6 week old Alport; lane 3, 7 week old control; lanes 4 and 5, 7 week old Alport; lanes 6 and 7, 7 week old Alport treated with MMI-270 from 6 to 7 weeks of age. Molecular weight markers are shown in lane 1. The Alport mouse model has been described (Cosgrove et al. (1996) Genes Dev. 10, 2981-2992). The control mice used were normal for both collagen α3(IV) alleles, and are a product of double heterozygote crosses for the Alport mutation. The use of animals in this study was performed in accordance with an approved institutional IACUC protocol. Extreme care was taken to minimize pain and discomfort suffered by the mice. MMP inhibitors were administered between 4 and 7 weeks of age. All drugs were freshly prepared prior to administration. BAY 129566 was emulsified in suspension with 0.5% carboxymethyl cellulose and 4 mg given once a day by oral gavage. MMI-270 was solubilized in 0.9% saline and administered by I.P. injection (50 μg/g body weight) once a day. To assess the effect of these two compounds on Alport renal disease progression, Alport mice were administered either MMI 270 or BAY 129566 from 4 to 7 weeks of age. The animals were transcardially perfused with PBS and the kidneys harvested. Cryosections were analyzed by immunofluorescence microscopy to assess for the degree of glomerular and tubulointerstitial damage using antibodies specific for collagen IV α1 and α2 chains, and fibronectin.

Setting [3] is: listed as NMI 270, hydrochloride monohydrate.

Turning to `COc1ccc(S(=O)(=O)N(Cc2cccnc2)[C@@H](C(=O)NO)C(C)C)cc1` [MMI 270, N-hydroxy-2(R)-[(4-methoxysulfonyl)(3-picolyl)amino]-3-methylbutaneamide hydrochloride monohydrate], the “glomerular and tubulointerstitial (renal) disease progression” value in the assay with Alport mice [1] (hydrochloride monohydrate) is “very little glomerular or interstitial disease; also recorded: remarkable improvement”; in the assay with Alport mice [1] (setting [3]), “significantly reduced interstitial disease”. The proteinuria entry in the assay on Alport mice [2] (hydrochloride monohydrate) was “arrests (and may reverse) progressive loss of glomerular function”; in the assay with Alport mice [2] (listed as MMI-270, hydrochloride monohydrate), “dramatic reduction”; with Alport mice [2] (setting [3]), “drastically reduced”. Besides, the progression of proteinuria entry is reported as “arrests the progressive increase in proteinuria; also recorded: arrested” in the assay on Alport mice [2] (hydrochloride monohydrate) and “arrested” with Alport mice [2] (setting [3]).
